Data: patent EP0074929A1, “Polycyclic polyazaheterocycles, process for their preparation and pharmaceutical preparations containing them” (CIBA-GEIGY AG, priority 1981, dated 1983)
Counter-ions that a name gives are not always drawn. Like-named read-outs stand apart in the source and are kept apart here.

What was measured:
[1] = system: durch Tetrabenazin induzierten Ptosis; test: Antagonism of tetrabenazine-induced ptosis in the rat (Rubin et al.); format: in vivo, Ratte
Method: (§1) Die Verbindungen der allgemeinen Formel I und ihre Säureadditionssalze besitzen wertvolle psychopharmakologische Eigenschaften. Insbesondere wirken sie antagonistisch gegenüber der durch Reserpin induzierten Hypothermie, z.B. bei intraperitonealer oder peroraler Applikation an der Ratte, [vgl. Benz und Waser, Arzneimittelforsch. 21 (5) 654 (1971)] im Dosenbereich von 10 bis 100 mg/kg, und gegenüber der durch Tetrabenazin induzierten Ptosis bei intraperitonealer oder peroraler Applikation an der Ratte [vgl. Rubin et al., J. Pharmacol. exptl. Ther. 120, 125 (1957)] im Dosenbereich von 3 bis 100 mg/kg. Beispielsweise beträgt die ED50 von 4,5-Dihydro-2-[(dimethylamino)-methyl]-5-phenyl-1,2,4-triazolo[1,5-a]chinoxalin-hydrochlorid im zweitgenannten Test 3-10 mg/kg per os und 10 mg/kg i.p.. Im Sozialkonflikt-Test an der Ratte zeigen die Verbindungen der allgemeinen Formel I, wie die vorgenannte, anxiolytische Wirkung nach peroraler Verabreichung von Dosen ab 1 mg/kg. […] Die Toxizität der Verbindungen der allgemeinen Formel I ist im Vergleich zu den erwünschten pharmakologischen Wirkungen niedrig. Diese Eigenschaften kennzeichnen die Verbindungen der allgemeinen Formel I als Antidepressiva und Anxiolytica, die zur Behandlung von Depressionen Verwendung finden können.

[2] = system: Sozialkonflikt-Test; test: Social conflict test in the rat; format: in vivo, Ratte; conditions: po, peroral, lowest dose with anxiolytic effect, read-out: anxiolytische Wirkung nach peroraler Verabreichung von Dosen ab
Method: as §1

[3] = system: isolierten Meerschweinchenvorhof; test: Isolated guinea pig atrium, inotropic and chronotropic effect; set-up: species or system Meerschweinchen
[4] = system: isolierten Meerschweinchenvorhof; conditions: known antidepressants, stated as contrast; cited from earlier work

| SMILES | ED50 ([1]; ip) [mg/kg] | ED50 ([1]; po, per os) [mg/kg] | minimal effective dose [2] [mg/kg] | chronotrope Wirkung [3] | inotrope Wirkung [3] | chronotrope Wirkung [4] | inotrope Wirkung [4] |
| --- | --- | --- | --- | --- | --- | --- | --- |
| CN(C)Cc1nc2n(n1)-c1ccccc1N(c1ccccc1)C2 [4,5-Dihydro-2-[(dimethylamino)-methyl]-5-phenyl-1,2,4-triazolo[1,5-a]chinoxalin-hydrochlorid] | 10 | 3 to 10 | ≥ 1 | schwach negativ chronotrope | schwach positiv inotrope |  |  |
| CN(C)CCCN1c2ccccc2CCc2ccccc21 [Imipramin] |  |  |  |  |  | positiv chronotropen | eher negativ inotropen |
